Assay results: ChEMBL document CHEMBL1153052, “Identification of new Hsp90 inhibitors by structure-based virtual screening” (Bioorg Med Chem Lett, 2009)
Active and inactive are the calls of the source. No cut-off for these calls is given here.

Assays:
[1] = biological target: T1, Heat shock protein HSP90 (Homo sapiens) (UniProt P07900+P08238); experiment: Inhibition of Hsp90 in human MCF7 cells assessed as induction of Hsp70 expression at 20 to 40 uM after 24 hrs by Western blotting; type: cell-based
[2] = biological target: T1, Heat shock protein HSP90 (Homo sapiens); experiment: Inhibition of Hsp90 in human MCF7 cells assessed as Her2 degradation at 20 to 40 uM after 24 hrs by Western blotting; type: cell-based
[3] = biological target: ATP-dependent molecular chaperone HSP82 (Saccharomyces cerevisiae S288c, UniProt P02829); experiment: Inhibition of yeast Hsp90 ATPase activity by ATPase assay using malachite green colorimetric method
Chain of ATP-dependent molecular chaperone HSP82 (P02829 whole entry): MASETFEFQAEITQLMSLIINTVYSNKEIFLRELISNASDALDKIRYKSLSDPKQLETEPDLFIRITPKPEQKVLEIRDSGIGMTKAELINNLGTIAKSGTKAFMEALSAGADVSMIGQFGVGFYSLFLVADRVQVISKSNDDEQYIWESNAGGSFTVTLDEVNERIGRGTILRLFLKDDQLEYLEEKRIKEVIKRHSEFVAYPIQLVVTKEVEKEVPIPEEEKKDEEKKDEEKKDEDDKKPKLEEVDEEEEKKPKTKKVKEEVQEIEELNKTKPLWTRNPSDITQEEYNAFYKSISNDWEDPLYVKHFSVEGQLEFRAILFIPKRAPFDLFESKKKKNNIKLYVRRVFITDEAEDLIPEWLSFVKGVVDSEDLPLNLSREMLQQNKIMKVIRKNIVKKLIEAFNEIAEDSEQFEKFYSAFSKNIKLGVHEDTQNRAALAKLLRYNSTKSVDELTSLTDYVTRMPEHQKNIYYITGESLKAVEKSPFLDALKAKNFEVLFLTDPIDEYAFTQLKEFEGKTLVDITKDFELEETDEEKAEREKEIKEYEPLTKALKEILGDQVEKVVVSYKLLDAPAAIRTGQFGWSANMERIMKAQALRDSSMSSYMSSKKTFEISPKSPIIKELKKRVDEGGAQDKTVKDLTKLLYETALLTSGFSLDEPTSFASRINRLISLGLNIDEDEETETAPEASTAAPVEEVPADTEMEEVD

MCF7 = experiment: Cytotoxicity against human MCF7 cells by SRB assay; type: functional, cell-based

SMILES | Activity [1] | Activity [2] | IC50 [3] | IC50 (MCF7)
O=C(CSc1nnc(-c2ccc3c(c2)OCO3)n1-c1ccccc1)c1ccccc1 | inactive | Active | 15.4 µM | 44.6 µM
O=C(CSc1nnc(-c2cccnc2)n1-c1ccccc1)NCc1ccccc1 | inactive | Active |  | 
COC1=C2C[C@@H](C)C[C@H](OC)[C@H](O)[C@@H](C)/C=C(\C)[C@H](OC(N)=O)[C@@H](OC)/C=C\C=C(/C)C(=O)NC(=CC1=O)C2=O [GELDANAMYCIN] |  |  |  | 9.6 µM
CCOc1cc(/C=C2\C(=O)NC(=O)N(Cc3ccccc3)C2=O)ccc1O | inactive |  |  | 
Cc1cccc(N2C(=O)NC(=O)/C(=C/c3ccccc3OCC(=O)O)C2=O)c1 | inactive | Active |  | 
O=C1NC(=O)N(c2ccccc2F)C(=O)/C1=C\c1cn(Cc2ccccc2)c2ccccc12 | Active | Active | 24.6 µM | 18.1 µM
COc1ccc(-c2cc(-c3nnc(S)n3-c3cccc4ccccc34)[nH]n2)cc1 | inactive | Active |  | 
